Results reported in patent publication US20260364168A1, “USE OF PROTEIN KINASE C (PKC) ACTIVATING COMPOUNDS AS AN ADJUVANT” (priority 2022, published 2026).
Read-outs that look alike come from different tables or passages of the source.

Legend:
NFκB = NFκB luciferase reporter gene assay in HeLa-NFκB luciferase reporter cell line; type: cell-based; conditions: 16 h; for EC50: 37 °C, luciferase/CTG normalized, read-out: NFκB-luc HeLa cells EC50
Procedure: The PKC activator compounds were evaluated for their effect on NFκB expression using a luciferase reporter gene expression system. (The indicators “K-101,” “K101” and “K-101A” may be used interchangeably in this disclosure and appended figures).
A HeLa-NFκB luciferase reporter cell line (Wuxi Biology) was used to assess a group of PKC activator compounds for their ability to activate NFκB-driven transcription. Two sets of cells at 20000 cells/well were plated, grown overnight, and then treated for 16 h at 37 °C with DMSO, 6 doses of each compound, or TNF-α (final concentration of 10 ng/mL, positive control) in triplicates. One set of cells was assayed for luciferase activity (Promega, Cat #E1500) and the other set was assayed to determine the number of viable cells (for cell number normalization) using CellTiter-Glo (CTG) kit (Promega, Cat #G7570) according to manufacture's procedures. Normalized data (luciferase value/CTG value) were analyzed using GraphPad Prism5 to calculate EC50 for each compound (see Table 3).

human PBMC cells = assay: cytokine/chemokine gene expression (TaqMan) in human PBMC; conditions: 4 h; for fold induction at 1 µM / fold induction at 0.01 µM / fold induction at 0.03 µM / fold induction at 0.1 µM: Homo sapiens, PBMC
Procedure: Materials and methods: 100 million frozen human PBMC cells were purchased from Allcells (100 million/vial). The cells were thawed and recovered for one day before 1.5-1.8 million cells in 900 μl RPMI1640 with 10% heat-inactivated FBS were seeded in each well of 24-well plates. Various compounds in DMSO stock (500×) were diluted 50-fold with the same media to make 10× compound stock for most compounds. 1 μL of 5 mg/mL PMA was diluted to 99 μL of the media to make 50 μg/mL PMA. For PMA with ionomycin treatment condition, 1.5 μL of 50 μg/mL PMA and 3 μL of 500 μg/mL ionomycin were added to 145.5 μL of the media to make 10× compound stock. Sources of the compounds are as follows: PMA from Abcam (Abcam #ab120297); Ionomycin from Sigma (Sigma #I0634); Resiquimod from Sellect Chem. (Selleckchem #S8133); and LPS from Sigma (Sigma #L6143).
Each treatment condition was performed in duplicates. After treatment, mRNA was extracted from cells and samples from duplicates were combined for TaqMan gene expression assays (ThermoFisher) in triplicates. Expression of 19 genes (IL-1β, IL-2, IL-4, IL-6, IL-8, IL-10, IL-13, IL-18, IL-12p70/IL-12A, IL-12p40/IL-12B, IFN-α, IFN-γ, GM-CSF/CSF2, CCL2/MCP-1, MIP1a/CCL3, TNF-α, MX1, OAS1, ISG15) along with two housekeeping gene controls, 18S and GAPDH, was determined. Target gene expression in each sample was determined by relative quantification (RQ) using the comparative Ct (ΔΔCT) method. This method measures the Ct difference (ΔCT) between target gene and the housekeeping genes (18S & GAPDH), then compares the ΔCT values of treated samples to DMSO-treated control samples. The mean ΔCT value of the DMSO-treated control from two independent DMSO-treated control samples was used. The relative expression level of target gene was calculated by using the equation:
relative expression=2^−ΔΔCT

[1] = 0.03 μM, vs DMSO, 240 min, 0.03 µM
[2] = 0.10 μM, vs DMSO, 240 min, 0.1 µM

CC1=C[C@H]2[C@@]3(O)[C@H](C)C[C@]4(OC(=O)[C@@H](N)Cc5ccccc5)[C@H]([C@@H]3C=C(CO)C[C@]2(O)C1=O)C4(C)C
EC50 (NFκB; Homo sapiens, HeLa): 200 to 600 nM

CCOCc1nc2c(N)nc3ccccc3c2n1CC(C)(C)O [Resiquimod, reference compound]
IL-6 induction compared to DMSO control (human PBMC cells): > 400 fold | IL-12p40 expression (in words) (human PBMC cells): highly induced | ISG15 expression (in words) (human PBMC cells): highly induced | MX1 expression (in words) (human PBMC cells): highly induced | OAS1 expression (in words) (human PBMC cells): highly induced | fold induction at 1 µM (human PBMC cells; read-out: CCL2 gene relative expression): 3.73 | fold induction at 1 µM (human PBMC cells; read-out: GM-CSF gene relative expression): 8.79 | fold induction at 1 µM (human PBMC cells; read-out: IFN-α gene relative expression): 1.47 | fold induction at 1 µM (human PBMC cells; read-out: IFNγ gene relative expression): 1.28 | fold induction at 1 µM (human PBMC cells; read-out: IL-1β gene relative expression): 102 | fold induction at 1 µM (human PBMC cells; read-out: IL-2 gene relative expression): 1.21 | fold induction at 1 µM (human PBMC cells; read-out: IL-6 gene relative expression): 487 | fold induction at 1 µM (human PBMC cells; read-out: IL-8 gene relative expression): 9.87 | fold induction at 1 µM (human PBMC cells; read-out: IL-10 gene relative expression): 5.65 | fold induction at 1 µM (human PBMC cells; read-out: IL-12p40 gene relative expression): 786 | fold induction at 1 µM (human PBMC cells; read-out: IL-12p70 gene relative expression): 2.48 | fold induction at 1 µM (human PBMC cells; read-out: IL-13 gene relative expression): 3.52 | fold induction at 1 µM (human PBMC cells; read-out: IL-18 gene relative expression): 1.33 | fold induction at 1 µM (human PBMC cells; read-out: ISG15 gene relative expression): 14.8 | fold induction at 1 µM (human PBMC cells; read-out: MIP1a (CCL3) gene relative expression): 47.7 | fold induction at 1 µM (human PBMC cells; read-out: MX1 gene relative expression): 17 | fold induction at 1 µM (human PBMC cells; read-out: OAS1 gene relative expression): 12.7 | fold induction at 1 µM (human PBMC cells; read-out: TNF-α gene relative expression): 7.38

CC1=C[C@H]2[C@@]3(O)[C@H](C)C[C@]4(OC(=O)C(N)CCCCCCc5ccccc5)[C@H]([C@@H]3C=C(CO)C[C@]2(O)C1=O)C4(C)C (stereo partly drawn)
EC50 (NFκB): 1 to 10 nM | IL-2 gene relative expression (human PBMC cells; [1]): 3.59 | IL-13 gene relative expression (human PBMC cells; [1]): 5.87 | IL-18 gene relative expression (human PBMC cells; [1]): 0.19 | TNF-α gene relative expression (human PBMC cells; [1]): 2.91 | CCL2 gene relative expression (human PBMC cells; [2]): 0.40 | GM-CSF gene relative expression (human PBMC cells; [2]): 21.01 | IFNγ gene relative expression (human PBMC cells; [2]): 11.33 | IL-6 gene relative expression (human PBMC cells; [2]): 6.15 | IL-10 gene relative expression (human PBMC cells; [2]): 0.12 | IL-13 gene relative expression (human PBMC cells; [2]): 121.59 | MIP1a (CCL3) gene relative expression (human PBMC cells; [2]): 4.95 | fold induction at 0.01 µM (human PBMC cells; read-out: CCL2 gene relative expression, 0.01 μM, 4 h, vs DMSO): 1.81 | fold induction at 0.03 µM (human PBMC cells; read-out: CCL2 gene relative expression, 0.03 μM, 4 h, vs DMSO): 6.53 | fold induction at 0.01 µM (human PBMC cells; read-out: GM-CSF gene relative expression, 0.01 μM, 4 h, vs DMSO): 1 | fold induction at 0.03 µM (human PBMC cells; read-out: GM-CSF gene relative expression, 0.03 μM, 4 h, vs DMSO): 1.88 | fold induction at 0.01 µM (human PBMC cells; read-out: IFN-α gene relative expression, 0.01 μM, 4 h, vs DMSO): 0.73 | fold induction at 0.03 µM (human PBMC cells; read-out: IFN-α gene relative expression, 0.03 μM, 4 h, vs DMSO): 1.21 | fold induction at 0.1 µM (human PBMC cells; read-out: IFN-α gene relative expression, 0.10 μM, 4 h, vs DMSO): 0.8 | fold induction at 0.01 µM (human PBMC cells; read-out: IFNγ gene relative expression, 0.01 μM, 4 h, vs DMSO): 1.46 | fold induction at 0.03 µM (human PBMC cells; read-out: IFNγ gene relative expression, 0.03 μM, 4 h, vs DMSO): 1.49 | fold induction at 0.01 µM (human PBMC cells; read-out: IL-1β gene relative expression, 0.01 μM, 4 h, vs DMSO): 0.38 | fold induction at 0.03 µM (human PBMC cells; read-out: IL-1β gene relative expression, 0.03 μM, 4 h, vs DMSO): 0.94 | fold induction at 0.1 µM (human PBMC cells; read-out: IL-1β gene relative expression, 0.10 μM, 4 h, vs DMSO): 3 | fold induction at 0.01 µM (human PBMC cells; read-out: IL-2 gene relative expression, 0.01 μM, 4 h, vs DMSO): 1.32 | fold induction at 0.1 µM (human PBMC cells; read-out: IL-2 gene relative expression, 0.10 μM, 4 h, vs DMSO): 4.98 | fold induction at 0.03 µM (human PBMC cells; read-out: IL-4 gene relative expression, 0.03 μM, 4 h, vs DMSO): 1.19 | fold induction at 0.1 µM (human PBMC cells; read-out: IL-4 gene relative expression, 0.10 μM, 4 h, vs DMSO): 2.78 | fold induction at 0.01 µM (human PBMC cells; read-out: IL-6 gene relative expression, 0.01 μM, 4 h, vs DMSO): 0.57 | fold induction at 0.03 µM (human PBMC cells; read-out: IL-6 gene relative expression, 0.03 μM, 4 h, vs DMSO): 1.23 | fold induction at 0.01 µM (human PBMC cells; read-out: IL-8 gene relative expression, 0.01 μM, 4 h, vs DMSO): 0.44 | fold induction at 0.03 µM (human PBMC cells; read-out: IL-8 gene relative expression, 0.03 μM, 4 h, vs DMSO): 0.66 | fold induction at 0.1 µM (human PBMC cells; read-out: IL-8 gene relative expression, 0.10 μM, 4 h, vs DMSO): 0.44 | fold induction at 0.01 µM (human PBMC cells; read-out: IL-10 gene relative expression, 0.01 μM, 4 h, vs DMSO): 1.59 | fold induction at 0.03 µM (human PBMC cells; read-out: IL-10 gene relative expression, 0.03 μM, 4 h, vs DMSO): 0.86 | fold induction at 0.01 µM (human PBMC cells; read-out: IL-12p40 gene relative expression, 0.01 μM, 4 h, vs DMSO): 0.34 | fold induction at 0.03 µM (human PBMC cells; read-out: IL-12p40 gene relative expression, 0.03 μM, 4 h, vs DMSO): 0.38 | fold induction at 0.01 µM (human PBMC cells; read-out: IL-12p70 gene relative expression, 0.01 μM, 4 h, vs DMSO): 1.05 | fold induction at 0.03 µM (human PBMC cells; read-out: IL-12p70 gene relative expression, 0.03 μM, 4 h, vs DMSO): 0.96 | fold induction at 0.1 µM (human PBMC cells; read-out: IL-12p70 gene relative expression, 0.10 μM, 4 h, vs DMSO): 0.74 | fold induction at 0.01 µM (human PBMC cells; read-out: IL-13 gene relative expression, 0.01 μM, 4 h, vs DMSO): 0.37 | fold induction at 0.01 µM (human PBMC cells; read-out: IL-18 gene relative expression, 0.01 μM, 4 h, vs DMSO): 0.63 | fold induction at 0.1 µM (human PBMC cells; read-out: IL-18 gene relative expression, 0.10 μM, 4 h, vs DMSO): 0.05 | fold induction at 0.01 µM (human PBMC cells; read-out: ISG15 gene relative expression, 0.01 μM, 4 h, vs DMSO): 0.94 | fold induction at 0.03 µM (human PBMC cells; read-out: ISG15 gene relative expression, 0.03 μM, 4 h, vs DMSO): 0.97 | fold induction at 0.1 µM (human PBMC cells; read-out: ISG15 gene relative expression, 0.10 μM, 4 h, vs DMSO): 1.57 | fold induction at 0.01 µM (human PBMC cells; read-out: MIP1a (CCL3) gene relative expression, 0.01 μM, 4 h, vs DMSO): 1.29 | fold induction at 0.03 µM (human PBMC cells; read-out: MIP1a (CCL3) gene relative expression, 0.03 μM, 4 h, vs DMSO): 1.67 | fold induction at 0.01 µM (human PBMC cells; read-out: MX1 gene relative expression, 0.01 μM, 4 h, vs DMSO): 0.77 | fold induction at 0.03 µM (human PBMC cells; read-out: MX1 gene relative expression, 0.03 μM, 4 h, vs DMSO): 0.65 | fold induction at 0.1 µM (human PBMC cells; read-out: MX1 gene relative expression, 0.10 μM, 4 h, vs DMSO): 1.06 | fold induction at 0.01 µM (human PBMC cells; read-out: OAS1 gene relative expression, 0.01 μM, 4 h, vs DMSO): 0.85 | fold induction at 0.03 µM (human PBMC cells; read-out: OAS1 gene relative expression, 0.03 μM, 4 h, vs DMSO): 0.55 | fold induction at 0.1 µM (human PBMC cells; read-out: OAS1 gene relative expression, 0.10 μM, 4 h, vs DMSO): 0.71 | fold induction at 0.01 µM (human PBMC cells; read-out: TNF-α gene relative expression, 0.01 μM, 4 h, vs DMSO): 1.34 | fold induction at 0.1 µM (human PBMC cells; read-out: TNF-α gene relative expression, 0.10 μM, 4 h, vs DMSO): 6.52

TNF-α [reference compound]
activation of NFκB luciferase reporter gene expression above DMSO control (NFκB; 10 ng/mL): ~10 fold
